Results taken from PubChem BioAssay AID1918996 (Molecular Pharmacology Branch, DTP, NCI, 2023).
Values joined by “and” are separate entries in the source; they are usually repeats but may differ in a detail not shown here. Identical values can stand only once.

Test system: 349418-098-R-PDC complex spheroid growth
Test: Anticancer human tumor 349418-098-R-PDC patient-derived lung adenocarcinoma cell line growth inhibition [AhR]
Details: for viability, T/C: stronger effect = lower value
From the text: Multicellular complex tumor spheroid response to aryl hydrocarbon receptor antagonists in combination with a variety of drugs and investigational agents in selected tumor cell lines
The current study was undertaken to assess response to aryl hydrocarbon receptor antagonists in combination with standard-of-care drugs and investigational agents in solid tumor complex spheroid models. Complex spheroids include a stromal component modeled by human endothelial cells (HUVEC) and fibroblasts modeled by human mesenchymal stem cells (MSCs). The concentration ranges selected for each drug and investigational agent were based upon clinically achievable concentrations if the clinical Cmax of the agent was known.
Compounds. The drugs and investigational agents: BAY 2416964 (NSC825713), GNF351 (NSC835774), CH-223191 (NSC835775), CPI-455 (NSC825282), aza-TdCyd (NSC777586), decitabine (NSC127716), belinostat (NSC758774), entinostat (NSC756642), pevonedistat (NSC761192), tazemetostat (NSC777109), talazoparib (NSC765396), olaparib (NSC753686), selinexor (NSC780203), nedisertib (M3814, NSC802822), bortezomib (NSC756655), venetoclax (NSC766270), doxorubicin (NSC123127), elimusertib (BAY189344, NSC800525), ceralasertib (AZD6738, NSC777638), TAK-243 (NSC785004), alisertib (NSC759677), etoposide (NSC141540), topotecan (NSC609699), eribulin (NSC707389), gemcitabine (NSC613327), carboplatin (NSC241240), cisplatin (NSC119875), and SN-38 (NSC673596) were obtained from the National Cancer Institute (NCI) Developmental Therapeutics Program Chemical Repository (32). The FDA-approved anticancer drug set is available from the Developmental Therapeutics Program at https://dtp.cancer.gov/organization/dscb/obtaining/available plates.htm. […] The stock solutions were prepared in dimethyl sulfoxide (DMSO, Sigma-Aldrich, St. Louis, MO, cat. D2650), except for the platinum compounds which were prepared in saline (Quality Biological, Gaithersburg, MD, cat. 114-055-101), at 800-fold the tested concentration and stored at -70 degrees C prior to their use. All drugs and investigational agents were tested over a range starting from a high concentration at or near the clinical Cmax and decreasing in half-log increments. If the clinical Cmax for an agent had not been determined, the highest concentration tested was 10 microM (Table 1).
Cell Culture. All cells were maintained in an incubator at 37 degrees C and 5% CO2 with 95% humidity. The PDC lines were cultured according to standard operating procedures established by the NCI PDMR (https://pdmr.cancer.gov). Briefly, all PDCs were thawed and cultured in Matrigel-coated flasks prepared with a working solution of 1X Ham's F-12 nutrient mix, without supplementation (Invitrogen, Waltham, MA, cat. 11765054), 100 U/mL penicillin-streptomycin (Invitrogen, cat. 15140122), and 2.5% Matrigel (Corning Inc., Corning, NY, cat. 354248) for the first three passages. All PDCs were cultured in complete DMEM/F-12 media containing advanced DMEM/F-12 (Invitrogen, cat. 12634028), 4.9% defined fetal bovine serum, heat inactivated (HyClone Laboratories Inc., Logan, UT, cat. SH30070.03HI), 389 ng/mL hydrocortisone (Sigma-Aldrich, cat. H4001), 9.7 ng/mL human EGF recombinant protein (Invitrogen, cat. PHG0313), 23.4 microg/mL adenine (Sigma-Aldrich, cat. A2786), 97.3 U/mL penicillin-streptomycin (Invitrogen, cat. 15140122), 1.9 mM L-glutamine (Invitrogen, cat. 25030081), and 9.7 microM Y-27632 dihydrochloride (Tocris Bioscience, Bristol, United Kingdom, cat. 1254). The PDCs were cultured in complete DMEM/F12 media without 10 microM Y-27632 dihydrochloride for at least two passages prior to the screen. The established cell lines NCI-H1341 and […] were cultured in DMEM/F-12, HEPES (Invitrogen, cat. 11330032), 5% defined fetal bovine serum (HyClone Laboratories Inc., cat. SH30070.03), ITS premix universal culture supplement [insulin (5 microg/mL), transferrin (5 microg/mL), and selenious acid (5 ng/mL)] […]

[1] = curve of first compound, second compound 0.1 µM
[2] = curve of first compound, second compound 0.316 µM
[3] = curve of first compound, second compound 1 µM
[4] = curve of first compound, second compound 3.16 µM
[5] = curve of first compound, second compound 10 µM
[6] = second compound 0.1 µM, first compound 0.0316 µM
[7] = second compound 0.1 µM, first compound 0.1 µM
[8] = second compound 0.1 µM, first compound 0.316 µM
[9] = second compound 0.1 µM, first compound 1 µM
[10] = second compound 0.1 µM, first compound 3.16 µM
[11] = second compound 0.1 µM, first compound 10 µM
[12] = second compound 0.316 µM, first compound 0.0316 µM
[13] = second compound 0.316 µM, first compound 0.1 µM
[14] = second compound 0.316 µM, first compound 0.316 µM
[15] = second compound 0.316 µM, first compound 1 µM
[16] = second compound 0.316 µM, first compound 3.16 µM
[17] = second compound 0.316 µM, first compound 10 µM
[18] = second compound 1 µM, first compound 0.0316 µM
[19] = second compound 1 µM, first compound 0.1 µM
[20] = second compound 1 µM, first compound 0.316 µM
[21] = second compound 1 µM, first compound 1 µM
[22] = second compound 1 µM, first compound 3.16 µM
[23] = second compound 1 µM, first compound 10 µM
[24] = second compound 3.16 µM, first compound 0.0316 µM
[25] = second compound 3.16 µM, first compound 0.1 µM
[26] = second compound 3.16 µM, first compound 0.316 µM
[27] = second compound 3.16 µM, first compound 1 µM
[28] = second compound 3.16 µM, first compound 3.16 µM
[29] = second compound 3.16 µM, first compound 10 µM
[30] = second compound 10 µM, first compound 0.0316 µM
[31] = second compound 10 µM, first compound 0.1 µM
[32] = second compound 10 µM, first compound 0.316 µM
[33] = second compound 10 µM, first compound 1 µM
[34] = second compound 10 µM, first compound 3.16 µM
[35] = second compound 10 µM, first compound 10 µM
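Note: spheroids exposed to agents for seven days before luminescence viability read.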
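Throughout, for viability, T/C: spheroids also contain HUVEC endothelial cells and human MSC stroma.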

Compound | IC50 [1] | IC50 [2] | IC50 [3] | IC50 [4] | IC50 [5] | viability, T/C [6] | viability, T/C [7] | viability, T/C [8] | viability, T/C [9] | viability, T/C [10] | viability, T/C [11] | viability, T/C [12] | viability, T/C [13] | viability, T/C [14] | viability, T/C [15] | viability, T/C [16] | viability, T/C [17] | viability, T/C [18] | viability, T/C [19] | viability, T/C [20] | further results
CC1(C)CCC(CN2CCN(c3ccc(C(=O)NS(=O)(=O)c4ccc(NCC5CCOCC5)c([N+](=O)[O-])c4)c(Oc4cnc5[nH]ccc5c4)c3)CC2)=C(c2ccc(Cl)cc2)C1 + Cc1cncc(-c2nc(NCCc3c[nH]c4ccccc34)c3ncn(C(C)C)c3n2)c1 | > 10000 nM | > 10000 nM | > 10000 nM | < 31.6 nM | < 31.6 nM | 102% | 108% | 96.2% | 92.4% | 90.2% | 88.4% | 99.3% | 99.8% | 103% | 87.7% | 90.8% | 94.1% | 104% | 98.5% | 91.3% | viability, T/C [21]: 81.4%; viability, T/C [22]: 83%; viability, T/C [23]: 86.4%; viability, T/C [24]: 22.3%; viability, T/C [25]: 24.5%; viability, T/C [26]: 23.2%; viability, T/C [27]: 28.6%; viability, T/C [28]: 27.3%; viability, T/C [29]: 26.6%; viability, T/C [30]: 3.27%; viability, T/C [31]: 2.85%; viability, T/C [32]: 2.92%; viability, T/C [33]: 3.37%; viability, T/C [34]: 3.16%; viability, T/C [35]: 3.69%
COc1ccc([C@@H](O)c2cc(-c3ncnc4cc(N5CCOCC5)ccc34)c(F)cc2Cl)nn1 | – | – | – | – | – | – | – | – | – | – | – | – | – | – | – | – | – | – | – | – | viability, T/C (compound 0.0316 µM): 97.4% and 104% and 117%; viability, T/C (compound 0.1 µM): 112% and 77.3% and 98.6%; viability, T/C (compound 0.316 µM): 101% and 83.1% and 51.5%; viability, T/C (compound 1 µM): 84.5% and 66.4% and 65.3%; viability, T/C (compound 3.16 µM): 57.2% and 33.5% and 38.6%; viability, T/C (compound 10 µM): 16.7% and 11.3% and 12.6%; IC50 (curve of compound): 3790 nM and 1770 nM and 1160 nM
COc1cc(Nc2ncc3c(n2)-c2ccc(Cl)cc2C(c2c(F)cccc2OC)=NC3)ccc1C(=O)O + Cc1cncc(-c2nc(NCCc3c[nH]c4ccccc34)c3ncn(C(C)C)c3n2)c1 | 195 nM | 242 nM | 267 nM | < 31.6 nM | < 31.6 nM | 68.8% | 58.2% | 42.4% | 40.8% | 36.3% | 33.1% | 72.6% | 68.6% | 44.4% | 47.8% | 41.1% | 43.9% | 67.7% | 57.3% | 46.7% | viability, T/C [21]: 48.8%; viability, T/C [22]: 40.3%; viability, T/C [23]: 44.8%; viability, T/C [24]: 19.7%; viability, T/C [25]: 20%; viability, T/C [26]: 14.1%; viability, T/C [27]: 12.7%; viability, T/C [28]: 14.7%; viability, T/C [29]: 17.9%; viability, T/C [30]: 3.34%; viability, T/C [31]: 2.89%; viability, T/C [32]: 2.53%; viability, T/C [33]: 2.17%; viability, T/C [34]: 2.59%; viability, T/C [35]: 3.53%
COc1cccc2c1C(=O)c1c(O)c3c(c(O)c1C2=O)CC(O)(C(=O)CO)CC3OC1CC(N)C(O)C(C)O1 (configuration not stated) + CC(CO)NC(=O)c1cc(-c2ccc(Cl)cc2)nn(-c2cnn(C)c2)c1=O | < 31.6 nM | < 31.6 nM | < 31.6 nM | < 31.6 nM | < 31.6 nM | 21.8% | 13.4% | 3.76% | 0.59% | 2.28% | 5.15% | 26.6% | 13.2% | 3.63% | 0.47% | 3.14% | 5.48% | 25% | 14.7% | 3.05% | viability, T/C [21]: 0.52%; viability, T/C [22]: 3.58%; viability, T/C [23]: 5.75%; viability, T/C [24]: 19.6%; viability, T/C [25]: 14.4%; viability, T/C [26]: 2.92%; viability, T/C [27]: 0.71%; viability, T/C [28]: 2.73%; viability, T/C [29]: 5.34%; viability, T/C [30]: 18.5%; viability, T/C [31]: 12.3%; viability, T/C [32]: 1.49%; viability, T/C [33]: 1.33%; viability, T/C [34]: 3.87%; viability, T/C [35]: 6.78%
